Experimental findings from US11851440B2, “Modulators of eukaryotic initiation factor 2B, compositions and methods” (Denali Therapeutics Inc., priority 2017, dated 2023) are described below.

Structures are written as SMILES.

The subject of one assay is ISR pathway (ATF4 translation). In words: ATF4 Nano Luciferase reporter integrated stress response (ISR) assay in H4 ATF4-NLuc cells. To be noted: Homo sapiens, H4 ATF4-NLuc (clone 17) cells; compound 30 minutes, then 50 um sodium arsenite for 6 hours; luminescence readout. In general terms: Reporter assays use an easily measured gene product as a stand-in for the process of interest.
With `O=C(CO[C@H]1C[C@@H](OC(F)(F)F)C1)NC12CC(n3cnc(-c4c(F)cc(Cl)cc4F)c3)(C1)C2` [Example 269], the IC50 stood at 0.0075 µM.
Take `O=C(COc1ccc(Br)cc1)NC12CC(c3nnc([C@H]4C[C@@H](OC(F)(F)F)C4)o3)(C1)C2` [Example 163]: the midpoint of inhibition, the IC50, lay at 0.0085 µM.

Still in this assay, the particulars now being: Homo sapiens, read-out: Activity (IC50), H4 ATF4-NLuc (clone 17) cells; compound 30 minutes, then 50 um sodium arsenite for 6 hours; luminescence readout.
`CN(CCO[C@H]1C[C@@H](OC(F)(F)F)C1)C12CC(NC(=O)COc3ccc(Cl)c(F)c3)(C1)C2` [Example 132, 2-(4-chloro-3-fluoro-phenoxy)-N-[3-[methyl-[2-[3-cis-(trifluoromethoxy)cyclobutoxy]ethyl]amino]-1-bicyclo[1.1.1]pentanyl]acetamide]: the half-maximal inhibitory concentration (IC50) was less than 1 µM.
Same read-out and setting: for `O=C(COCCn1cc(F)cn1)NC12CC(n3cnc(-c4ccc(Cl)cc4)c3)(C1)C2` [Example 145] the value was less than 1 µM; for `O=C(COC1CC(OC(F)(F)F)C1)NC12CC(c3nnc(-c4cnn(CC(F)(F)F)c4)o3)(C1)C2` (stereo not drawn) [Example 118, N-[3-[5-[1-(2,2,2-trifluoroethyl)pyrazol-4-yl]-1,3,4-oxadiazol-2-yl]-1-bicyclo[1.1.1]pentanyl]-2-[3-cis-(trifluoromethoxy)cyclobutoxy]acetamide], 1 to 10 µM; for `O=C(NC12CC(c3nnc(C4CC(OC(F)(F)F)C4)o3)(C1)C2)c1nc2cc(Cl)ccc2o1` (stereo not shown) [Example 165], less than 1 µM.
Same read-out and setting: then `O=C(COc1ccc(Cl)c(F)c1)NC12CC(c3nnc(CC4CC4)o3)(C1)C2` [Example 11, 2-(4-chloro-3-fluoro-phenoxy)-N-[1-[5-(cyclopropylmethyl)-1,3,4-oxadiazol-2-yl]-3-bicyclo[1.1.1]pentanyl]acetamide], with less than 1 µM; and `CN1C(=O)N(C23CC(NC(=O)COc4ccc(Cl)cc4)(C2)C3)CC1c1ccc(Cl)cc1` (stereo not shown) [Example 212], with less than 1 µM; and `O=C(NC12CC(c3nnc([C@H]4C[C@@H](OC(F)(F)F)C4)o3)(C1)C2)c1cc2ccc(Cl)n2cn1` [Example 181], with less than 1 µM.
On to `O=C(COCCOC(F)(F)F)NC12CC(c3nnc([C@H]4C[C@@H](OC(F)(F)F)C4)o3)(C1)C2` [Example 94, N-[3-[5-[3-cis-(trifluoromethoxy)cyclobutyl]-1,3,4-oxadiazol-2-yl]-1-bicyclo[1.1.1]pentanyl]-2-[2-(trifluoromethoxy)ethoxy]acetamide], for which the IC50 was in the range of 1 to 10 µM.
On the same count and under the same terms, then `O=C(CO[C@H]1C[C@@H](OC(F)(F)F)C1)NC12CC(n3cnc(C4CC(OC(F)(F)F)C4)c3)(C1)C2` (stereo partly shown) [Example 52], with less than 1 µM; and `O=C(NC12CC(c3nnc([C@H]4C[C@@H](OC(F)(F)F)C4)o3)(C1)C2)c1cnc2ccccc2n1` [Example 188], with less than 1 µM.
Same read-out and setting: then `O=C(COC[C@H]1C[C@@H](OC(F)(F)F)C1)NC12CC(c3nnc([C@H]4C[C@@H](OC(F)(F)F)C4)o3)(C1)C2` [Example 117, 2-[[3-cis-(trifluoromethoxy)cyclobutyl]methoxy]-N-[3-[5-[3-cis-(trifluoromethoxy)cyclobutyl]-1,3,4-oxadiazol-2-yl]-1-bicyclo[1.1.1]pentanyl]acetamide], with 1 to 10 µM; and `O=C(NC12CC(n3cnc(-c4ccc(Cl)c(F)c4)c3)(C1)C2)C1CCN(CC(F)(F)F)CC1` [Example 155], with less than 1 µM; and `O=C(CO[C@H]1C[C@@H](OC(F)(F)F)C1)NC12CC(n3cnc(-c4c(F)cc(Cl)cc4F)c3)(C1)C2` [Example 269], with less than 1 µM.
Same read-out and setting: for `CC(C)(C)OC(=O)N1CCC(c2nnc(C34CC(NC(=O)COc5ccc(Cl)c(F)c5)(C3)C4)o2)C1` (stereo not shown) [Example 14, tert-butyl 3-[5-[3-[[2-(4-chloro-3-fluoro-phenoxy)acetyl]amino]-1-bicyclo[1.1.1]pentanyl]-1,3,4-oxadiazol-2-yl]pyrrolidine-1-carboxylate] the value was less than 1 µM; for `CC(C)(Oc1ccc(Cl)cc1)C(=O)NC12CC(c3nnc([C@H]4C[C@@H](OC(F)(F)F)C4)o3)(C1)C2` [Example 154], less than 1 µM; for `CC(C)(C)OC(=O)N1CCOC(c2nnc(C34CC(NC(=O)COc5ccc(Cl)c(F)c5)(C3)C4)o2)C1` (stereo not shown) [Example 128, tert-butyl 2-[5-[3-[[2-(4-chloro-3-fluoro-phenoxy)acetyl]amino]-1-bicyclo[1.1.1]pentanyl]-1,3,4-oxadiazol-2-yl]morpholine-4-carboxylate], 1 to 10 µM.
On to `O=C(COc1ccc(Br)cc1)NC12CC(c3nnc([C@H]4C[C@@H](OC(F)(F)F)C4)o3)(C1)C2` [Example 163], for which the IC50 was less than 1 µM.
In the case of `O=C(CO[C@H]1C[C@@H](COC(F)(F)F)C1)NC12CC(c3nnc([C@H]4C[C@@H](OC(F)(F)F)C4)o3)(C1)C2` [Example 89, N-[3-[5-[3-cis-(trifluoromethoxy)cyclobutyl]-1,3,4-oxadiazol-2-yl]-1-bicyclo[1.1.1]pentanyl]-2-[3-cis-(trifluoromethoxymethyl)cyclobutoxy]acetamide], the IC50 is less than 1 µM.
As for `O=C(NC12CC(c3nnc([C@H]4C[C@@H](OC(F)(F)F)C4)o3)(C1)C2)C1=NO[C@H](c2ccccc2)C1` [Example 100, cis-(S)-5-phenyl-N-(3-(5-(3-(trifluoromethoxy)cyclobutyl)-1,3,4-oxadiazol-2-yl)bicyclo[1.1.1]pentan-1-yl)-4,5-dihydroisoxazole-3-carboxamide], the IC50 is less than 1 µM.
For `O=C(CO[C@H]1C[C@@H](OC(F)(F)F)C1)NC12CC(c3nnn(-c4ccc(Cl)cc4)n3)(C1)C2` [Example 243], the IC50 is less than 1 µM.
On the same count and under the same terms, for `O=C(NC12CC(c3nnc([C@H]4C[C@@H](OC(F)(F)F)C4)o3)(C1)C2)c1cn2cc(F)c(Cl)cc2n1` [Example 194] the value was less than 1 µM; for `O=C(CO[C@H]1C[C@@H](OC(F)(F)F)C1)NC12CC(n3cnc(-c4cccc(F)c4)c3)(C1)C2` [Example 137], less than 1 µM.

Staying with this assay, now noted: read-out: Activity (IC50); H4 ATF4-NLuc (clone 17) cells; compound 30 minutes, then 50 um sodium arsenite for 6 hours; luminescence readout.
`O=C(NC12CC(c3nnc([C@H]4C[C@@H](OC(F)(F)F)C4)o3)(C1)C2)C1CCc2cc(Cl)ccc2O1` (single isomer, unassigned) [Example 158, 6-chloro-N-(3-(5-(3-cis-(trifluoromethoxy)cyclobutyl)-1,3,4-oxadiazol-2-yl)bicyclo[1.1.1]pentan-1-yl)chroman-2-carboxamide]: the IC50 is less than 1 µM.

The term IC50 denotes the concentration needed to halve the response being measured.
